The values that follow come from patent US20040175447A1, “Feeds and fertilizers containing pentacyclic triterpenes” (The Nisshin OilliO, Ltd., priority 2001, published 2004).

For this test, the system named is B-16 melanoma cells. Nature of the test: Evaluation of melanin production-inhibitory effect (cell-whitening degree of cultured B-16 melanoma cells). For Melanin production-inhibitory effect (cell-whitening degree): key: ++: The whitening degree is higher than that observed for the positive control; +: The whitening degree is almost identical to that observed for the positive control; ±: The whitening degree is not higher than that observed for the positive control, but higher than that observed for the control; −: The whitening degree is almost identical to that observed for the control. Format: cell-based. Conditions: for Melanin production-inhibitory effect (cell-whitening degree): positive control 450 ppm vitamin C-magnesium phosphate; for melanogenesis-inhibitory function relative to that observed when 450 ppm of vitamin C-magnesium phosphate (standard) is added: from Table 1. The procedure:
In the present invention, the melanogenesis-inhibitory effect is evaluated and compared on the basis of the results of tests for examining the melanogenesis-inhibitory function in which B-16 melanoma cells are cultivated, as a primary evaluation. Moreover, a feed is, for instance, practically prepared and its effectiveness in the melanogenesis-inhibition is evaluated as a secondary evaluation. It has been confirmed that the pentacyclic triterpenes whose strong melanogenesis-inhibitory function is confirmed by the cell culture test as the primary evaluation also show an excellent effect in the secondary evaluation test. In addition, it has also been confirmed that there is a correlation between the results obtained in these two evaluation methods.
If the culture system includes a melanogenesis-inhibitory substance during the proliferation thereof, the blackening of the cells is suppressed while the whitening thereof is relatively promoted. Accordingly, the melanogenesis-inhibitory function of the substance can be evaluated by comparing the degree of whitening observed for the substance with the degree of blackening observed for a control. The evaluated results of the melanogenesis-inhibitory effect obtained in this cell culture system clearly indicate that the pentacyclic triterpenes and/or physiologically acceptable salts thereof or derivatives thereof have quite strong melanogenesis-inhibitory effects. For instance, when comparing the effects thereof with that achieved by vitamin C-magnesium phosphate, the melanogenesis-inhibitory effect is about 100 to 200 times, for maslinic acid, about 100 to 200 times, for maslinic acid salts, about 10 to 100 times, for erythrodiol, about 30 to 120 times, for uvaol, about 30 to 120 times, for betulinic acid, about 10 to 100 times, for betulin, about 100 to 200 times, for ethyl maslinate, about 50 to 150 times, for acetylated maslinic acid, about 30 to 120 times, for triethylsilylated maslinic acid, about 50 to 150 times, for stearoyl derivative of ethyl maslinate, about 10 to 100 times, for acetylated erythrodiol, about 10 to 100 times, for acetylated uvaol, about 10 to 100 times, for ethyl betulinate, and about 5 to 50 times, for acetylated betulin, that observed for the vitamin C-magnesium phosphate.
A culture medium was dispensed to wells of a 6-well plate (2 mL/well each), followed by inoculation of a desired amount of B-16 melanoma cells on each well, allowing the wells to stand at 37° C. and 5% CO2 to thus cultivate the cells. On the day subsequent thereto, a candidate sample (pentacyclic triterpenes) solution prepared was added to and mixed with the culture medium containing the cells and the cultivation was continued. The culture medium was replaced with fresh one on the 5th day from the initiation of the cultivation and the prepared sample solution was again added to the wells. On the next day, the culture medium was removed to recover the cells, followed by the washing of these cells with PBS (phosphate buffered physiological saline) and the subsequent evaluation of the cell-whitening degree. In this respect, the melanogenesis-inhibitory function was evaluated by comparing the cell-whitening degree thus obtained with that observed when using 450 ppm of vitamin C-magnesium phosphate as a known whitening agent (a positive control) and that obtained when any candidate sample was not used (control), according to the following evaluation criteria.
The evaluation criteria for the cell-whitening degree are as follows:
Regarding the results listed in Table 1, the whitening degree observed when adding 450 ppm of vitamin C-magnesium phosphate is selected as a standard.

The structures appear in SMILES notation.

`CCCCCCCCCCCCCCCCCC(=O)O[C@@H]1C[C@]2(C)[C@H]3CC=C4[C@@H]5CC(C)(C)CC[C@]5(C(=O)OCC)CC[C@@]4(C)[C@]3(C)CC[C@H]2C(C)(C)[C@H]1OC(=O)CCCCCCCCCCCCCCCCC` [Compound of Synthesis 4, Ethyl 2,3-O-Di-Stearoyl-Maslinate]: the “melanogenesis-inhibitory function relative to that observed when 450 ppm of vitamin C-magnesium phosphate (standard) is added” value is reported as “about 75 times”. The “Melanin production-inhibitory effect (cell-whitening degree)” value (“Melanin production-inhibitory effect” below) (2 ppm) is given as “±”. The “Melanin production-inhibitory effect” value (4 ppm) is recorded as “±”. Also, the “Melanin production-inhibitory effect” value (6 ppm) is listed as “+”. Further, for the setting “8 ppm”, the “Melanin production-inhibitory effect” value is recorded as “++”. Also, the “Melanin production-inhibitory effect” value (10 ppm) is given as “++”. Moreover, the “Melanin production-inhibitory effect” value (15 ppm) is reported as “++”.

In the case of `CC(=O)OCC12CCC(C)(C)CC1C1=CCC3C4(C)CCC(OC(C)=O)C(C)(C)C4CCC3(C)C1(C)CC2` (stereo not shown) [Compound of Synthesis 5, 3,28-O-Di-Acetyl-Erythrodiol], the “melanogenesis-inhibitory function relative to that observed when 450 ppm of vitamin C-magnesium phosphate (standard) is added” value is “about 20 times”. Under “2 ppm”, the “Melanin production-inhibitory effect” value is “−”. Moreover, where the note is “6 ppm”, the “Melanin production-inhibitory effect” value was “±”. Also, the “Melanin production-inhibitory effect” value (10 ppm) is “±”. Moreover, the “Melanin production-inhibitory effect” value (25 ppm) is listed as “+”. Also, where the note is “50 ppm”, the “Melanin production-inhibitory effect” value is on record as “+”.

For `CCOC(=O)[C@]12CC[C@@H](C)[C@H](C)[C@H]1C1=CC[C@@H]3[C@@]4(C)CC[C@H](O)C(C)(C)[C@@H]4CC[C@@]3(C)[C@]1(C)CC2` [Compound of Synthesis 6, Ethyl Ursolate], the “melanogenesis-inhibitory function relative to that observed when 450 ppm of vitamin C-magnesium phosphate (standard) is added” value is “about 110 times”. For the same compound, the “Melanin production-inhibitory effect” value (2 ppm) is reported as “±”. Where the note is “4 ppm”, the “Melanin production-inhibitory effect” value was “+”. Moreover, under “6 ppm”, the “Melanin production-inhibitory effect” value was “++”. In addition, the “Melanin production-inhibitory effect” value (8 ppm) is “++”. Further, the “Melanin production-inhibitory effect” value (10 ppm) is reported as “++”.

Turning to `CC(=O)OC[C@]12CC[C@@H](C)[C@H](C)[C@H]1C1=CC[C@@H]3[C@@]4(C)CC[C@H](OC(C)=O)C(C)(C)[C@@H]4CC[C@@]3(C)[C@]1(C)CC2` [Compound of Synthesis 7, 3,28-O-Di-Acetyl-Uvaol], the “melanogenesis-inhibitory function relative to that observed when 450 ppm of vitamin C-magnesium phosphate (standard) is added” value is listed as “about 20 times”. Further, the “Melanin production-inhibitory effect” value (2 ppm) is given as “−”. For the setting “6 ppm”, the “Melanin production-inhibitory effect” value was “−”. Further, the “Melanin production-inhibitory effect” value (10 ppm) is listed as “±”. Further, where the note is “25 ppm”, the “Melanin production-inhibitory effect” value is reported as “+”. Also, for the setting “50 ppm”, the “Melanin production-inhibitory effect” value is on record as “+”.

Turning to `C=C(C)[C@@H]1CC[C@]2(C(=O)OCC)CC[C@]3(C)[C@H](CC[C@@H]4[C@@]5(C)CC[C@H](O)C(C)(C)[C@@H]5CC[C@]43C)[C@@H]12` [Compound of Synthesis 8, Ethyl Betulinate], the “melanogenesis-inhibitory function relative to that observed when 450 ppm of vitamin C-magnesium phosphate (standard) is added” value is on record as “about 20 times”. The “Melanin production-inhibitory effect” value (2 ppm) is reported as “−”. In addition, the “Melanin production-inhibitory effect” value (6 ppm) is “±”. For the same compound, for the setting “10 ppm”, the “Melanin production-inhibitory effect” value was “±”. The “Melanin production-inhibitory effect” value (25 ppm) was “+”. Also, the “Melanin production-inhibitory effect” value (50 ppm) is given as “+”.

Turning to `C=C(C)[C@@H]1CC[C@]2(COC(C)=O)CC[C@]3(C)[C@H](CC[C@@H]4[C@@]5(C)CC[C@H](OC(C)=O)C(C)(C)[C@@H]5CC[C@]43C)[C@@H]12` [Compound of Synthesis 9, 3,28-O-Di-Acetyl-Betulin], the “melanogenesis-inhibitory function relative to that observed when 450 ppm of vitamin C-magnesium phosphate (standard) is added” value is listed as “about 10 times”. Besides, the “Melanin production-inhibitory effect” value (2 ppm) was “−”. For the same compound, the “Melanin production-inhibitory effect” value (6 ppm) was “−”. Also, under “10 ppm”, the “Melanin production-inhibitory effect” value is “±”. Also, the “Melanin production-inhibitory effect” value (25 ppm) is “±”. The “Melanin production-inhibitory effect” value (50 ppm) is “+”.
